# Laboratory results as given in patent US12077503B2, “Substituted cyclic amides and their use as herbicides” (FMC CORPORATION, priority 2015, dated 2024).
# Read-outs that look alike come from different tables or passages of the source.
# Key:
# Type in all cases: in vivo
# [1] = tested on: pigweed (Amaranthus retroflexus); assay: Test A preemergence; settings: Amaranthus retroflexus, pre-emergence, 240 h; for pest or weed control at 125 g/ha: 125 g ai/ha; for pest or weed control at 500 g/ha: 500 g ai/ha, visual injury vs untreated controls after approximately 10 d, read-out: Pigweed plant response rating (0 to 100 scale where 0 is no effect and 100 is complete control)
# [2] = tested on: Galium (catchweed bedstraw, Galium aparine); assay: Test A postemergence; settings: Galium, post-emergence, 240 h; for pest or weed control at 125 g/ha: 125 g ai/ha
# Procedure, shortened: (§1)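 In a loam soil and sand blend, planted seeds got a preemergence directed soil spray, and young plants at the one- to two-leaf stage, 2–10 cm high, got a postemergence application; ~10 d greenhouse hold; injury rated visually, 0 = none, 100 = complete control.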
# Kochia (Kochia scoparia) = assay: Test A postemergence; settings: Bassia scoparia, post-emergence, 240 h; for pest or weed control at 125 g/ha: 125 g ai/ha
# Procedure, shortened: as §1
# [3] = tested on: barnyardgrass (Echinochloa crus-galli); assay: Test A postemergence; settings: Echinochloa crus-galli, post-emergence, 240 h; for pest or weed control at 125 g/ha: 125 g ai/ha
# Procedure, shortened: as §1
# [4] = tested on: blackgrass (Alopecurus myosuroides); assay: Test A postemergence; settings: Alopecurus myosuroides, post-emergence, 240 h; for pest or weed control at 125 g/ha: 125 g ai/ha
# Procedure, shortened: as §1
# corn (Zea mays) = assay: Test A postemergence; settings: Zea mays, post-emergence, 240 h; for plant injury at 125 g/ha: postemergence, visual injury rating after approximately 10 d, read-out: Corn plant response rating (0 to 100 scale, 0 no effect, 100 complete control)
# Procedure, shortened: as §1
# [5] = tested on: giant foxtail (Setaria faberii); assay: Test A postemergence; settings: Setaria faberi, post-emergence, 240 h; for pest or weed control at 125 g/ha: 125 g ai/ha
# Procedure, shortened: as §1
# [6] = tested on: pigweed (Amaranthus retroflexus); assay: Test A postemergence; settings: Amaranthus retroflexus, post-emergence, 240 h; for pest or weed control at 125 g/ha: 125 g ai/ha
# Procedure, shortened: as §1
# [7] = tested on: ragweed (common ragweed, Ambrosia elatior); assay: Test A postemergence; settings: Ambrosia artemisiifolia, post-emergence, 240 h; for pest or weed control at 125 g/ha: 125 g ai/ha
# Procedure, shortened: as §1
# [8] = tested on: ryegrass, Italian (Italian ryegrass, Lolium multiflorum); assay: Test A postemergence; settings: Lolium multiflorum, post-emergence, 240 h; for pest or weed control at 125 g/ha: 125 g ai/ha
# Procedure, shortened: as §1
# [9] = tested on: wheat (Triticum aestivum); assay: Test A postemergence; settings: Triticum aestivum, post-emergence, 240 h; for plant injury at 125 g/ha: 125 g ai/ha
# Procedure, shortened: as §1
# [10] = tested on: barnyardgrass (Echinochloa crus-galli); assay: Test B flooded paddy test; settings: Echinochloa crus-galli, Flood, 250 g ai/ha; scale of 0 to 100 where 0 is no effect and 100 is complete control; read-out: Barnyardgrass plant response rating
# Procedure, shortened: (§2)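 Evaluation by eye, against controls, occurred 13–15 d post-treatment in a greenhouse, using a 0 (no effect) to 100 (complete control) scale. Application was into the paddy water, 3 cm deep over the soil, on 2-leaf plants.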
# [11] = tested on: ducksalad (Heteranthera limosa); assay: Test B flooded paddy test; settings: Heteranthera limosa, Flood, 250 g ai/ha; scale of 0 to 100 where 0 is no effect and 100 is complete control; read-out: Ducksalad plant response rating
# Procedure, shortened: as §2
# rice (Oryra sativa) = assay: Test B flooded paddy test; settings: Oryza sativa, Flood, 250 g ai/ha; scale of 0 to 100 where 0 is no effect and 100 is complete control; read-out: Rice plant response rating
# Procedure, shortened: as §2
# [12] = tested on: sedge, umbrella (small-flower umbrella sedge, Cyperus difformis); assay: Test B flooded paddy test; settings: Cyperus difformis, Flood, 250 g ai/ha; scale of 0 to 100 where 0 is no effect and 100 is complete control; read-out: Sedge, Umbrella plant response rating
# Procedure, shortened: as §2
# [13] = preemergence, 0 to 100 scale where 0 is no effect and 100 is complete control, read-out: Pigweed plant response rating
# [14] = postemergence, visual injury rating after approximately 10 d, read-out: Galium plant response rating (0 to 100 scale, 0 no effect, 100 complete control)
# [15] = postemergence, visual injury rating after approximately 10 d, read-out: Kochia plant response rating (0 to 100 scale, 0 no effect, 100 complete control)
# [16] = postemergence, visual injury rating after approximately 10 d, read-out: Barnyardgrass plant response rating (0 to 100 scale, 0 no effect, 100 complete control)
# [17] = postemergence, visual injury rating after approximately 10 d, read-out: Blackgrass plant response rating (0 to 100 scale, 0 no effect, 100 complete control)
# [18] = postemergence, visual injury rating after approximately 10 d, read-out: Foxtail, Giant plant response rating (0 to 100 scale, 0 no effect, 100 complete control)
# [19] = postemergence, visual injury rating after approximately 10 d, read-out: Pigweed plant response rating (0 to 100 scale, 0 no effect, 100 complete control)
# [20] = postemergence, visual injury rating after approximately 10 d, read-out: Ragweed plant response rating (0 to 100 scale, 0 no effect, 100 complete control)
# [21] = postemergence, visual injury rating after approximately 10 d, read-out: Ryegrass, Italian plant response rating (0 to 100 scale, 0 no effect, 100 complete control)
# [22] = postemergence, visual injury rating after approximately 10 d, read-out: Wheat plant response rating (0 to 100 scale, 0 no effect, 100 complete control)
smiles,measurement,setting,value
Cc1cc(C)cc([C@H]2CNC(=O)[C@@H]2C(=O)Nc2ccccc2F)c1 [Compound 888],pest or weed control at 125 g/ha,[1]; [13],0%
same,pest or weed control at 500 g/ha,[1]; Preemergence,0%
same,pest or weed control at 125 g/ha,[2]; [14],0%
same,pest or weed control at 125 g/ha,Kochia (Kochia scoparia); [15],0%
same,pest or weed control at 125 g/ha,[3]; [16],90%
same,pest or weed control at 125 g/ha,[4]; [17],20%
same,plant injury at 125 g/ha,corn (Zea mays); 125 g ai/ha,0%
same,pest or weed control at 125 g/ha,[5]; [18],30%
same,pest or weed control at 125 g/ha,[6]; [19],0%
same,pest or weed control at 125 g/ha,[7]; [20],0%
same,pest or weed control at 125 g/ha,[8]; [21],0%
same,plant injury at 125 g/ha,[9]; [22],0%
same,pest or weed control at 250 g/ha,[10],70%
same,pest or weed control at 250 g/ha,[11],75%
same,pest or weed control at 250 g/ha,rice (Oryra sativa),0%
same,pest or weed control at 250 g/ha,[12],0%
Cc1cc(C)cc([C@H]2CN(C)C(=O)[C@@H]2C(=O)Nc2cccc(F)c2F)c1 [Compound 911],pest or weed control at 125 g/ha,[1]; [13],20%
same,pest or weed control at 500 g/ha,[1]; Preemergence,50%
same,pest or weed control at 125 g/ha,[2]; [14],40%
same,pest or weed control at 125 g/ha,Kochia (Kochia scoparia); [15],50%
same,pest or weed control at 125 g/ha,[3]; [16],90%
same,pest or weed control at 125 g/ha,[4]; [17],50%
same,plant injury at 125 g/ha,corn (Zea mays); 125 g ai/ha,80%
same,pest or weed control at 125 g/ha,[5]; [18],90%
same,pest or weed control at 125 g/ha,[6]; [19],0%
same,pest or weed control at 125 g/ha,[7]; [20],0%
same,pest or weed control at 125 g/ha,[8]; [21],70%
same,plant injury at 125 g/ha,[9]; [22],50%
same,pest or weed control at 250 g/ha,[10],80%
same,pest or weed control at 250 g/ha,[11],75%
same,pest or weed control at 250 g/ha,rice (Oryra sativa),0%
same,pest or weed control at 250 g/ha,[12],0%
Cc1c(F)ccc([C@H]2CNC(=O)[C@@H]2C(=O)Nc2ccccc2C(F)(F)F)c1F [Compound 831],pest or weed control at 125 g/ha,[1]; [13],20%
same,pest or weed control at 500 g/ha,[1]; Preemergence,20%
same,pest or weed control at 125 g/ha,[2]; [14],20%
same,pest or weed control at 125 g/ha,Kochia (Kochia scoparia); [15],0%
same,pest or weed control at 125 g/ha,[3]; [16],30%
same,pest or weed control at 125 g/ha,[4]; [17],0%
same,plant injury at 125 g/ha,corn (Zea mays); 125 g ai/ha,0%
same,pest or weed control at 125 g/ha,[5]; [18],20%
same,pest or weed control at 125 g/ha,[6]; [19],0%
same,pest or weed control at 125 g/ha,[7]; [20],0%
same,pest or weed control at 125 g/ha,[8]; [21],20%
same,plant injury at 125 g/ha,[9]; [22],0%
same,pest or weed control at 250 g/ha,[10],0%
same,pest or weed control at 250 g/ha,[11],70%
same,pest or weed control at 250 g/ha,rice (Oryra sativa),0%
same,pest or weed control at 250 g/ha,[12],0%
CCOc1cc([C@H]2CN(C)C(=O)[C@@H]2C(=O)Nc2cccc(F)c2F)cc(C(F)(F)F)c1 [Compound 971],pest or weed control at 125 g/ha,"[1]; Preemergence, visual injury rating after approximately 10 d, read-out: Pigweed plant response rating (0 to 100 scale, 0 is no effect, 100 is complete control)",20%
same,pest or weed control at 31 g/ha,"[1]; Preemergence, 31 g ai/ha, 0 to 100 scale (0 no effect, 100 complete control), read-out: Plant response rating, Pigweed",20%
same,pest or weed control at 125 g/ha,"[2]; Postemergence, visual injury after approximately 10 d, 0 to 100 scale where 0 is no effect and 100 is complete control, read-out: Plant response rating, Galium",40%
same,pest or weed control at 31 g/ha,"[2]; Postemergence, 31 g ai/ha, visual injury after approx. 10 d, 0 to 100 scale, 0 no effect, 100 complete control, read-out: Plant response rating, Galium",20%
same,pest or weed control at 125 g/ha,"Kochia (Kochia scoparia); Postemergence, visual injury after approximately 10 d, 0 to 100 scale where 0 is no effect and 100 is complete control, read-out: Plant response rating, Kochia",40%
same,pest or weed control at 31 g/ha,"Kochia (Kochia scoparia); Postemergence, 31 g ai/ha, visual injury after approx. 10 d, 0 to 100 scale, 0 no effect, 100 complete control, read-out: Plant response rating, Kochia",20%
same,pest or weed control at 125 g/ha,"[3]; Postemergence, visual injury after approximately 10 d, 0 to 100 scale where 0 is no effect and 100 is complete control, read-out: Plant response rating, Barnyardgrass",80%
same,pest or weed control at 31 g/ha,"[3]; Postemergence, 31 g ai/ha, visual injury after approx. 10 d, 0 to 100 scale, 0 no effect, 100 complete control, read-out: Plant response rating, Barnyardgrass",50%
same,pest or weed control at 125 g/ha,"[4]; Postemergence, visual injury after approximately 10 d, 0 to 100 scale where 0 is no effect and 100 is complete control, read-out: Plant response rating, Blackgrass",50%
same,pest or weed control at 31 g/ha,"[4]; Postemergence, 31 g ai/ha, visual injury after approx. 10 d, 0 to 100 scale, 0 no effect, 100 complete control, read-out: Plant response rating, Blackgrass",40%
same,"Corn plant response rating (crop injury, 0 = no effect, 100 = complete kill) at 125 g/ha","corn (Zea mays); 125 g ai/ha, Postemergence, visual injury after approximately 10 d, 0 to 100 scale where 0 is no effect and 100 is complete control",70%
same,"Corn plant response rating (crop injury, 0 = no effect, 100 = complete kill) at 31 g/ha","corn (Zea mays); Postemergence, 31 g ai/ha, visual injury after approx. 10 d, 0 to 100 scale, 0 no effect, 100 complete control",70%
same,pest or weed control at 125 g/ha,"[5]; Postemergence, visual injury after approximately 10 d, 0 to 100 scale where 0 is no effect and 100 is complete control, read-out: Plant response rating, Foxtail, Giant",80%
same,pest or weed control at 31 g/ha,"[5]; Postemergence, 31 g ai/ha, visual injury after approx. 10 d, 0 to 100 scale, 0 no effect, 100 complete control, read-out: Plant response rating, Foxtail, Giant",80%
same,pest or weed control at 125 g/ha,"[6]; Postemergence, visual injury after approximately 10 d, 0 to 100 scale where 0 is no effect and 100 is complete control, read-out: Plant response rating, Pigweed",50%
same,pest or weed control at 31 g/ha,"[6]; Postemergence, 31 g ai/ha, visual injury after approx. 10 d, 0 to 100 scale, 0 no effect, 100 complete control, read-out: Plant response rating, Pigweed",20%
same,pest or weed control at 125 g/ha,"[7]; Postemergence, visual injury after approximately 10 d, 0 to 100 scale where 0 is no effect and 100 is complete control, read-out: Plant response rating, Ragweed",0%
same,pest or weed control at 31 g/ha,"[7]; Postemergence, 31 g ai/ha, visual injury after approx. 10 d, 0 to 100 scale, 0 no effect, 100 complete control, read-out: Plant response rating, Ragweed",0%
same,pest or weed control at 125 g/ha,"[8]; Postemergence, visual injury after approximately 10 d, 0 to 100 scale where 0 is no effect and 100 is complete control, read-out: Plant response rating, Ryegrass, Italian",50%
same,pest or weed control at 31 g/ha,"[8]; Postemergence, 31 g ai/ha, visual injury after approx. 10 d, 0 to 100 scale, 0 no effect, 100 complete control, read-out: Plant response rating, Ryegrass, Italian",20%
same,plant injury at 125 g/ha,"[9]; Postemergence, visual injury after approximately 10 d, 0 to 100 scale where 0 is no effect and 100 is complete control, read-out: Plant response rating, Wheat",50%
same,plant injury at 31 g/ha,"[9]; Postemergence, 31 g ai/ha, visual injury after approx. 10 d, 0 to 100 scale, 0 no effect, 100 complete control, read-out: Plant response rating, Wheat",30%
same,pest or weed control at 250 g/ha,[10],60%
same,pest or weed control at 250 g/ha,[11],85%
same,pest or weed control at 250 g/ha,rice (Oryra sativa),45%
same,pest or weed control at 250 g/ha,[12],0%
